Columns and labels:
[1] = molecular target: CDK7/Cyclin H/MAT1 trimeric complex (Homo sapiens, UniProt P50613); experiment: CDK7 kinase assay, Caliper/LabChip EZ Reader (Biortus Biosciences); assay type: biochemical; conditions: CDK7/Cyclin H/MAT1 10 nM, ATP 2 mM, FAM-CDK7tide 2 μM, 30 min incubation, read-out: CDK7 Inhibition (IC50)
Protocol: Compounds of the invention were further assayed for CDK7 activity at Biortus Biosciences (Jiangyin, Jiangsu Province, P.R. of China) using a CDK7 kinase assay developed with a Caliper/LabChip EZ Reader (Perkin Elmer, Waltham, Mass.). […] The incubation period was chosen such that the total fraction of phosphorylated peptide product produced was <20% for the uninhibited kinase.

[2] = test system: A673 cells; experiment: Inhibition of proliferation of A673 cells (CyQUANT, 72 hour); assay type: cell-based, human; conditions: 72 hour proliferation
Protocol: A673 cells are a cell line derived from human muscle Ewing's sarcoma. Representative compounds of the invention were tested at different concentrations (from 4 μM to 126.4 pM; 0.5 log serial dilutions) for their ability to inhibit the proliferation of A673 cells. Known CDK inhibitors flavopiridol and triptolide were used as positive controls. Cells were grown in Dulbecco's Modified Eagle's Medium, +10% FBS+1 mM Sodium Pyruvate. The cells were cultured at 37° C. in a humidified chamber in the presence of 5% CO2. Proliferation assays were conducted over a 72 hour time period. CyQUANT® (Life Technologies, Chicago, Ill. USA) was used to assess the anti-proliferative effects of the compounds following manufacturer's directions and utilizing the reagents supplied with the CyQUANT® kit. In this table, “A” represents an IC50 of less than 500 nM; “B” an IC50 of between 500 nM and 5 μM; and “C” an IC50 of greater than 5 μM.

[3] = molecular target: T1, CDK7 (Homo sapiens, UniProt P50613); experiment: CDK7 kinase activity, Adapta kinase assay (Life Technologies); assay type: biochemical; conditions: Adapta kinase assay at Life Technologies; 10 μM down to 0.514 nM, 3-fold serial dilutions; read-out: CDK7 Inhibition (IC50)
T1 construct: purchased Life Technologies (Adapta kinase assay service)
Protocol: Compounds of the invention were assayed for CDK7 activity at Life Technologies™ (Grand Island, N.Y.) using their commercially available Adapta® kinase assay services. Compounds were tested at concentrations ranging from 10 μM down to 0.514 nM in a series of 3-fold serial dilutions. Details of these assays, including substrates used, are available on the Life Technologies web site (http://www.lifetechnologies.com/us/en/home/life-science/drug-discovery/target-and-lead-identification-and-validation/kinasebiology/kinase-activity-assays.html).

[4] = test system: Jurkat cells; experiment: Inhibition of proliferation of Jurkat cells (CellTiter-Glo, 72 hour); assay type: cell-based, human; conditions: 10 μM to 316 pM
Protocol: Jurkat cells are a cell line established from a human T cell leukemia. Representative compounds of the invention were tested at different concentrations (from 10 μM to 316 pM; 0.5 log serial dilutions) for their ability to inhibit the proliferation of Jurkat cells. Known CDK inhibitors flavopiridol and triptolide were used as positive controls. Cells were grown in RPMI 1640+10% FBS+1% Glutamax. The cells were supplemented with FBS (Life Technologies) and 100 U·mL^− penicillin, 100 μg·mL^− streptomycin (Invitrogen) and cultured at 37° C. in a humidified chamber in the presence of 5% CO2. Proliferation assays were conducted over a 72 hour time period. CellTiter-Glo® (Promega Corporation, Madison, Wis. USA) was used to assess the anti-proliferative effects of the compounds following manufacturer's directions and utilizing the reagents supplied with the CellTiter-Glo® kit. In this table, “A” represents an IC50 of less than 500 nM; “B” an IC50 of between 500 nM and 5 μM; and “C” an IC50 of greater than 5 μM.

Sequence of CDK7/Cyclin H/MAT1 trimeric complex (P50613 whole entry): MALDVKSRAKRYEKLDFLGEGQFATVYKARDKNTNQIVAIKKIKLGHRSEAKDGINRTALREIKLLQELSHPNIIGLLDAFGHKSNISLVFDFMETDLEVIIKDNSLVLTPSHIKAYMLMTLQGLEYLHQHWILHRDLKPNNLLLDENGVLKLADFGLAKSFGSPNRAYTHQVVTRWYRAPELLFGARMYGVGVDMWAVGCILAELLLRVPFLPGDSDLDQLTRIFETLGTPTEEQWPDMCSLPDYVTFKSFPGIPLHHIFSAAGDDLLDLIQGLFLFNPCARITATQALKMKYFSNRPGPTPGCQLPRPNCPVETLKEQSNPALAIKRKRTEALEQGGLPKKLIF
Sequence of CDK7/Cyclin H/MAT1 trimeric complex (P51946 whole entry partner): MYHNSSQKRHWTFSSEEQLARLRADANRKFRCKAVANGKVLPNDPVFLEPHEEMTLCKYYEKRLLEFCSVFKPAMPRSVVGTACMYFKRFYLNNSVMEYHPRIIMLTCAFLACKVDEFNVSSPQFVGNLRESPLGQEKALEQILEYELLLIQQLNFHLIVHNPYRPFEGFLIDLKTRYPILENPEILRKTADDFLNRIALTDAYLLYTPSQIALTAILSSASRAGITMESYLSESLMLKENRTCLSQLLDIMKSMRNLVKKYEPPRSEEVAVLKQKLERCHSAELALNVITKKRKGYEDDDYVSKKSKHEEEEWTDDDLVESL
Sequence of CDK7/Cyclin H/MAT1 trimeric complex (P51948 whole entry partner): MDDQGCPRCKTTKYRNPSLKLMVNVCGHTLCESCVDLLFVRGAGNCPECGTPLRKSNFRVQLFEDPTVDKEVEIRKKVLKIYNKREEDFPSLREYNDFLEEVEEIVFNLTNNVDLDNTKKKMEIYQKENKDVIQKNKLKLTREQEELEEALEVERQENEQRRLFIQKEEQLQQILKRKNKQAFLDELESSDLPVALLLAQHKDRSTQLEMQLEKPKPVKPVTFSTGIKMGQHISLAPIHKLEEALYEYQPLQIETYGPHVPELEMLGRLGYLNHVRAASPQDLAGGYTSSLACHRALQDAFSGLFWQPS
T1 sequence (P50613 whole entry): as the sequence (P50613 whole entry) above
T1 sequence (P51946 whole entry partner): as the sequence (P51946 whole entry partner) above
T1 sequence (P51948 whole entry partner): as the sequence (P51948 whole entry partner) above

Row | IC50 [1] | IC50 [3] | IC50 [4] | Compound | IC50 [2] | IC50 ([2]; Homo sapiens)
1 | 0.1 to 1 µM | – | – | C=C(F)C(=O)Nc1ccc(C(=O)N[C@H]2CCC[C@@H](Nc3ncc(Cl)c(-c4c[nH]c5ccccc45)n3)C2)nc1 [compound 402] | < 0.5 µM | –
2 | 0.1 to 1 µM | – | – | CN(C)C/C=C/C(=O)Nc1ccc(C(=O)N[C@H]2CCC[C@@H](Nc3ncc(Cl)c(C4C(=O)Nc5ccccc54)n3)C2)nc1 (stereo partly drawn) [Compound 282, N-((1S,3R)-3-(5-Chloro-4-(2-oxoindolin-3-yl)pyrimidin-2-ylamino)cyclohexyl)-5-((E)-4-(dimethylamino)but-2-enamido)picolinamide] | – | < 0.5 µM
3 | < 0.1 µM | – | – | CN(C)C/C=C/C(=O)N1CCC[C@@H](NCc2ccc(Nc3ncc(Cl)c(-c4c[nH]c5ccccc45)n3)cc2)C1 [Compound 415, (R,E)-1-(3-((4-((5-chloro-4-(1H-indol-3-yl)pyrimidin-2-yl)amino)benzyl)amino)piperidin-1-yl)-4-(dimethylamino)but-2-en-1-One] | – | < 0.5 µM
4 | < 0.1 µM | – | – | C=CC(=O)NC1CN(C2CCCC(Nc3ncc(Cl)c(-c4c[nH]c5ccccc45)n3)C2)C1 (mixture of isomers) [Compound 255] | < 0.5 µM | –
5 | > 1 µM | – | – | C=CC(=O)N1CCN([C@H]2CCC[C@@H](Nc3ncc(Cl)c(-c4c[nH]c5ccc(OC)cc45)n3)C2)CC1 [Compound 375, 1-(4-((1S,3R)-3-(5-chloro-4-(5-methoxy-1H-indol-3-yl)pyrimidin-2-ylamino)cyclohexyl)piperazin-1-yl)prop-2-en-1-One] | – | < 0.5 µM
6 | < 0.1 µM | – | – | CN(C)C/C=C/C(=O)N(C)c1ccc(CN[C@H]2CCC[C@@H](Nc3ncc(Cl)c(-c4c[nH]c5ccccc45)n3)C2)nc1 [Compound 390, (E)-N-(6-((((1S,3R)-3-((5-chloro-4-(1H-indol-3-yl)pyrimidin-2-yl)amino)cyclohexyl)amino)methyl)pyridin-3-yl)-4-(dimethylamino)-N-methylbut-2-enamide] | – | < 0.5 µM
7 | < 0.1 µM | – | – | C=CC(=O)N1CCC[C@@H](NCc2ccc(Nc3ncc(Cl)c(-c4c[nH]c5ccccc45)n3)cc2)C1 [compound 393] | < 0.5 µM | –
8 | < 0.1 µM | – | – | CN(C)C/C=C/C(=O)N1CCN([C@H]2CCC[C@@H](Nc3ncc(Cl)c(-c4cnc5ccccn45)n3)C2)CC1 [compound 400] | < 0.5 µM | –
9 | < 0.1 µM | – | – | CN(C)C/C=C/C(=O)Nc1ccc(C(=O)N[C@@]2(C)CCC[C@@H](Nc3ncc(Cl)c(-c4c[nH]c5ccccc45)n3)C2)nc1 [Compound 267, N-((1S,3R)-3-(5-chloro-4-(1H-indol-3-yl)pyrimidin-2-ylamino)-1-methylcyclohexyl)-5-((E)-4-(dimethylamino)but-2-enamido)picolinamide] | – | < 0.5 µM
10 | < 0.1 µM | – | – | CCc1cnc(N[C@@H]2CCC[C@H](NC(=O)c3ccc(NC(=O)/C=C/CN(C)C)cn3)C2)nc1-c1c[nH]c2ccccc12 [Compound 262, 5-[[(E)-4-(dimethylamino)but-2-enoyl]amino]-N-[(1S,3R)-3-[[5-ethyl-4-(1H-indol-3-yl)pyrimidin-2-yl]amino]cyclohexyl]pyridine-2-carboxamide] | – | < 0.5 µM
11 | < 0.1 µM | – | – | CN(C)C/C=C/C(=O)Nc1ccc(C(=O)N[C@@]2(C)CCC[C@@H](Nc3ncc(C(F)(F)F)c(-c4c[nH]c5ccccc45)n3)C2)nc1 [Compound 399, 5-[[(E)-4-(dimethylamino)but-2-enoyl]amino]-N-[(1S,3R)-3-[[4-(1H-indol-3-yl)-5-(trifluoromethyl)pyrimidin-2-yl]amino]-1-methyl-cyclohexyl]pyridine-2-carboxamide] | – | < 0.5 µM
12 | < 0.1 µM | – | – | CN(C)C/C=C/C(=O)N1CC(F)(F)C[C@H]1C(=O)N[C@H]1CCC[C@@H](Nc2ncc(Cl)c(-c3c[nH]c4ccccc34)n2)C1 [compound 394] | < 0.5 µM | –
13 | < 0.1 µM | – | – | CCc1cnc(N[C@@H]2CCC[C@](C)(NC(=O)c3ccc(NC(=O)/C=C/CN(C)C)cn3)C2)nc1-c1c[nH]c2ccccc12 [Compound 407, 5-[[(E)-4-(dimethylamino)but-2-enoyl]amino]-N-[(1S,3R)-3-[[5-ethyl-4-(1H-indol-3-yl)pyrimidin-2-yl]amino]-1-methyl-cyclohexyl]pyridine-2-carboxamide] | – | < 0.5 µM
14 | 0.1 to 1 µM | – | – | C=CC(=O)N1CCN(C2CCCC(Nc3ncc(Cl)c(-c4c[nH]c5ccccc45)n3)C2)C(C)C1 (stereo not drawn) [Compound 257] | < 0.5 µM | –
15 | < 0.1 µM | – | – | CN(C)C/C=C/C(=O)Nc1ccc(C(=O)N[C@H]2CCC[C@@H](Nc3ncc(Cl)c(-c4cccc5c4ccn5C)n3)C2)nc1 [Compound 269, N-((1S,3R)-3-((5-chloro-4-(1-methyl-1H-indol-4-yl)pyrimidin-2-yl)amino)cyclohexyl)-5-((E)-4-(dimethylamino)but-2-enamido)picolinamide] | – | < 0.5 µM
16 | 0.1 to 1 µM | – | – | C=CC(=O)N1CCN([C@H]2CCC[C@@H](Nc3ncc(Cl)c(-c4c[nH]c5c(OC)cccc45)n3)C2)CC1 [compound 395] | < 0.5 µM | –
17 | < 0.1 µM | – | – | C=CC(=O)NC1CCCN(C2CCCC(Nc3ncc(Cl)c(-c4c[nH]c5ccccc45)n3)C2)C1 (mixture of isomers) [Compound 256] | < 0.5 µM | –
18 | < 0.1 µM | – | – | C=CC(=O)N1CCN([C@H]2CCC[C@@H](Nc3ncc(Cl)c(-c4c[nH]c5ccc(C)cc45)n3)C2)CC1 [Compound 340, 1-(4-((1S,3R)-3-(5-chloro-4-(5-methyl-1H-indol-3-yl)pyrimidin-2-ylamino)cyclohexyl)piperazin-1-yl)prop-2-en-1-One] | – | < 0.5 µM
19 | < 0.1 µM | – | – | C=CC(=O)N1CCN([C@H]2CCC[C@@H](Nc3ncc(Cl)c(-c4nnc5ccccn45)n3)C2)CC1 [Compound 344, 1-(4-((1S,3R)-3-((4-([1,2,4]triazolo[4,3-a]pyridin-3-yl)-5-chloropyrimidin-2-yl)amino)cyclohexyl)piperazin-1-yl)prop-2-en-1-One] | – | < 0.5 µM
20 | < 0.1 µM | – | – | CCc1cnc(N[C@@H]2CCC[C@](C)(NCc3ccc(NC(=O)/C=C/CN(C)C)cn3)C2)nc1-c1c[nH]c2ccccc12 [Compound 411, (E)-4-(dimethylamino)-N-[6-[[[(1S,3R)-3-[[5-ethyl-4-(1H-indol-3-yl)pyrimidin-2-yl]amino]-1-methylcyclohexyl]amino]methyl]-3-pyridyl]but-2-enamide] | – | < 0.5 µM
21 | < 0.1 µM | – | – | C=CC(=O)N1CCC(CNC2(C)CCCC(Nc3ncc(Cl)c(-c4c[nH]c5ccccc45)n3)C2)CC1 (stereo not drawn) [Compound 268] | < 0.5 µM | –
22 | < 0.1 µM | – | – | C=CC(=O)Nc1ccc(CN[C@H]2CCC[C@@H](Nc3ncc(Cl)c(-c4c[nH]c5ccccc45)n3)C2)nc1 [Compound 258] | – | < 0.5 µM
23 | < 0.1 µM | – | – | C=CC(=O)N1CCN([C@]23CCC[C@](Nc4ncc(Cl)c(-c5c[nH]c6ccccc56)n4)(CC2)C3)CC1 [Compound 408, 1-(4-((1R,5S)-5-(5-Chloro-4-(1H-indol-3-yl)pyrimidin-2-ylamino)bicyclo[3.2.1]octan-1-yl)piperazin-1-yl)prop-2-en-1-One] | – | < 0.5 µM
24 | – | < 0.1 µM | < 0.5 µM | C=CC(=O)N1CCC(CNC2CCC(Nc3ncc(Cl)c(-c4c[nH]c5ccccc45)n3)CC2)CC1 (stereo not drawn) [compound 163] | < 0.5 µM | –
25 | – | 0.1 to 1 µM | < 0.5 µM | C=CC(=O)N1CCN([C@@H]2CCC[C@@H](Nc3ncc(Cl)c(-c4c[nH]c5ccccc45)n3)C2)CC1 [Compound 180] | < 0.5 µM | –

Row | Compound | IC50 [1] | IC50 [3] | IC50 [4] | IC50 [2] | IC50 ([2]; Homo sapiens)
26 | CN(C)C/C=C/C(=O)Nc1ccc(CN(C)[C@H]2CCC[C@@H](Nc3ncc(Cl)c(-c4c[nH]c5ccccc45)n3)C2)nc1 [Compound 377, (E)-N-(6-((((1S,3R)-3-((5-chloro-4-(1H-indol-3-yl)pyrimidin-2-yl)amino)cyclohexyl)(methyl)amino)methyl)pyridin-3-yl)-4-(dimethylamino)but-2-enamide] | < 0.1 µM | – | – | – | < 0.5 µM
